Assay results from patent publication US7772258B2, “Agent for treatment of allergic eye disease” (Nikken Chemicals Co., Ltd., priority 2001, dated 2010).

system: Allergic Conjunctivitis Model; assay: Alleviating action for allergic conjunctivitis model (Itch-Scratch response after OA challenge); type: in vivo; conditions: OA-sensitized Wistar rats; positive control 0.3 w/v % suspension in physiological saline dropped into the eyes 10 minutes before OA challenge; scratching counted over 20 minutes after OA
Method: or the experiment, Wistar rats (CLEA Japan) were used. The rats were sensitized by intraperitoneal administration of ovalbumin (OA, made by Sigma) in an amount of 100 μg and 10 mg of aluminum hydroxide (Alum, made by Pierce Co.) suspended in 1 mL of physiological saline. Allergic conjunctivitis was induced using rats after 3 weeks from the date of sensitization by dropping into the eyes of 10 μg OA solution prepared by physiological saline to a concentration of 30 mg/mL. The medicine was suspended at a concentration of 1.0 w/v % in physiological saline and dropped into the eyes 10 minutes before OA challenge to induce conjunctivitis (as a positive control drug, diphenhydramine suspended in a concentration of 0.3 w/v % in physiological saline was dropped in the eyes 10 minutes before OA challenge to induce conjunctivitis). For the effect of the compound, the number of times of the action of using the hind legs to scratch the eye area (Itch-Scratch response; considered to be an indicator of itchiness) observed in the 20-minute period after dropping the OA was counted and used to find the rate of inhibition of itchiness by the following formula: Control group: presensitized rats in whose eyes physiological saline is dropped 10 minutes before using OA to induce conjunctivitis Untreated group: unsensitized rats in whose eyes physiological saline is dropped. Calculation Formula: Inhibition rate(%)=100−(test substance group−untreated group/(control group−untreated group)×100

**Q.** For `CN(C)CCOC(c1ccccc1)c1ccccc1` [Diphenhydramine, diphenhydramine, reference compound], which “Inhibition rate (%) of Itch-Scratch response” value (“Inhibition rate (%)” below) is on record?
**A.** 64.6%

same assay, conditions: OA-sensitized Wistar rats; test substance 1.0 w/v % suspension in physiological saline dropped into the eyes 10 minutes before OA challenge; scratching counted over 20 minutes after OA

**Q.** With `CCC1=C(Nc2ccc(OC)c(O[C@@H]3C[C@H]4CC[C@@H]3C4)c2)CCC1=O` (racemic) [Compound 3, 3-[3-[(1RS,2RS,4SR)-bicyclo[2.2.1]hept-2-yloxy]-4-methoxyanilino]-2-ethyl-2-cyclopenten-1-one] as the compound, how does the “Inhibition rate (%)” value read?
**A.** 63.5%

**Q.** With `COc1ccc(N(Cc2ccc3ccccc3c2)C2=CC(=O)CC2)cc1OC1CCCC1` [Compound 1, 3-[3-cyclopentyloxy-4-methoxy-N-(2-naphthylmethyl)anilino]-2-cyclopenten-1-one] as the compound, how does the “Inhibition rate (%)” value read?
**A.** 82.7%

**Q.** For `COc1ccc(NC2=C(C)C(=O)CC2)cc1O[C@@H]1C[C@H]2CC[C@@H]1C2` [Compound 4, (−)-3-[3-[(1R,2R,4S)-bicyclo[2.2.1]hept-2-yloxy]-4-methoxyanilino]-2-methyl-2-cyclopenten-1-one], which “Inhibition rate (%)” value is on record?
**A.** 68.6%

**Q.** `COc1ccc(NC2=C(C)C(=O)CC2)cc1O[C@H]1C[C@@H]2CC[C@H]1C2` [Compound 5, (+)-3-[3-[(1S,2S,4R)-bicyclo[2.2.1]hept-2-yloxy]-4-methoxyanilino]-2-methyl-2-cyclopenten-1-one] was tested. Which “Inhibition rate (%)” value did it give?
**A.** 97.1%

**Q.** `COc1ccc(NC2=C(C)C(=O)CC2)cc1O[C@@H]1C[C@H]2CC[C@@H]1C2` (racemic) [Compound 2, 3-[3-[(1RS,2RS,4SR)-bicyclo[2.2.1]hept-2-yloxy]-4-methoxyanilino]-2-methyl-2-cyclopenten-1-one] was tested. Which “Inhibition rate (%)” value did it give?
**A.** 62.9%
